Data reported in patent US6372884B1, “Biologically active compounds and methods of constructing and using the same” (priority 1987, dated 2002).
Ends that are not written are not given here.

How the values were obtained:
[1] = system: HIV; assay: Blocking of virus binding by gp120 421-438 peptide
From the text: A molecular model for the region 413-455 (FIG. 19) may be constructed based upon these structural concepts, utilizing a light-chain antibody structure known as REI (Bernstein et al., 1977, Mol. Biol. 112:535-542) as a template for the first and third hypervariable region, in which the cysteines in gp120 at positions 418 and 445 form a disulfide bridge. The cysteines are positionally conserved with respect to each other as in the light chain. The model may be energy optimized using molecular mechanics and dynamics. […] The in vitro biological activity of the 421-438 peptide fragment in modulating CD4-depending cellular function and this fragment's ability to induce an anti-HIV response is as described below.

[2] = system: […]-infected H9 cells; assay: Flow cytometry: mouse antisera binding to infected H9 cells; type: in vivo; details: subcutaneous immunization of mice
[3] = system: recombinant glycosylated gp120; details: radiolabelled immunoprecipitations
Description: The immunogenicity of B138 was determined by subcutaneous immunization of mice and rabbits.

[4] = system: HIV; assay: Infectivity assays with rabbit antisera; details: in vivo
[5] = system: recombinant HIV-1 gp120; details: rabbits immunized with peptide conjugated to KLH, FIG. 21
Description: Antisera was obtained and tested for binding to recombinant HIV-1 gp120 peptide-coated radioimmunoassay plates (using 1 μg/ml gp120 at 50 μl/well, in 0.1 M NaHCO3 and incubating overnight at 4° C.). The indicator antibody was ^125I-labelled anti-rabbit immunoglobulin antibody.

[6] = system: neutralizing monoclonal antibody 9BG5; type: binding, mouse
[7] = system: reovirus type 3; parameters: species or system Balb/c mice; details: mouse, in vivo
[8] = system: reovirus type 1; parameters: species or system Balb/c mice; details: mouse, in vivo
[9] = system: reovirus type 3; parameters: species or system Balb/c mice; details: mouse, in vivo; remark: listed apart in the source
[10] = system: reovirus type 1; parameters: species or system Balb/c mice; details: mouse, in vivo; remark: listed apart in the source
[11] = system: type 3 virus; parameters: species or system Balb/c mice; details: mouse, in vivo
[12] = system: type 1 virus; parameters: species or system Balb/c mice; details: mouse, in vivo
[13] = system: reovirus type 3; parameters: species or system mice; details: mouse, in vivo
[14] = Rate of loss of sulfhydryls on air oxidation (Ellman determination); type: physicochemical; details: 2 mg/ml in 0.1 M NaHCO3, 37° C., exposed to air, FIG. 23
[15] = Size-exclusion chromatography of oxidized peptides (Sephadex G-10); type: physicochemical; details: reduced versus non-reduced peptides
[16] = system: 9B.G5; assay: Solid phase RIA: binding of 9B.G5 to peptide coated plates; details: FIG. 24
Description: RIA plates (Dynatech Laboratories, Alexandria, Va.) were coated with peptides by evaporation of varying amounts of peptides in distilled water overnight at 37° C. The wells were washed with PBS, blocked with 2% bovine serum albumin (BSA) in PBS with 0.1% NaN3, and washed with PBS. Partially purified 9BG5 [(NH4)2SO4 precipitate] was added at varying dilutions for greater than 1 hour at 37° C. The wells were washed in PBS and 50,000-100,000 counts per minute of ^125I-labelled goat anti-mouse light chain (anti-k & anti-[Sigma] iodinated by chloramine T) was added per well in 1% BSA in PBS for 1-2 hours at 37° C. The wells were decanted, washed extensively, and CPM bound determined. Specific CPM bound was determined by subtracting the CPM bound to uncoated wells from the CPM bound to peptide coated wells.
To assess the optimal conformation for binding of the VL peptide analogs, they were utilized to coat radioimmunoassay (RIA) plates, and 9B.G5 bound by standard RIA procedures.

[17] = system: 9B.G5; assay: Competitive RIA: inhibition of 9B.G5 - 87.92.6 interaction; type: binding
[18] = system: 9B.G5; assay: Competitive RIA: inhibition of 9B.G5 - reovirus type 3 interaction; type: binding
[19] = system: reovirus type 3 receptor (Reo3R); assay: Flow cytometry: inhibition of 87.92.6 binding to cells; parameters: species or system murine; details: FIG. 29
Description: The ability of peptides to inhibit antibody binding to cells was determined by preincubation of the cells with varying amounts of inhibitor (in 100 μl dH2O) for between 30 minutes and 1 hour at 23° C. Cells (either L cells or R1.1 cells) were washed in 1% BSA/PBS/0.1% NaN3, and resuspended at 10^7/ml. 100 μl of cells were then added in 1% BSA/PBS/0.1% NaN3, and the incubation continued for 20-30 minutes. Antibodies (5 or 10 μl were added for an additional 20 minutes at 23° C. Ice cold 1% BSA/PBS/0.1% NaN3, was added, the cells centrifuged and washed prior to counterstaining with a 1:100 dilution of FITC goat anti-mouse Ig (Fisher Scientific) in 1% BSA/PBS/0.1% NaN3. The cells were washed twice and fluorescence intensity determined. Inhibition of binding was calculated as noted above with mean channel number utilized in place of CPM.
To assess the affinity of the cyclic peptides for the reovirus type 3 receptor (Reo3R), they were utilized in a series of assays to inhibit binding of 87.92.6 or control antibodies to specific receptors. […] The inhibition by VLC9C16 peptide was specific as binding of isotype matched monoclonal H013.4 to Thy2 molecules was not inhibited by VLC9C16 peptide (FIG. 30). Thus, VLC9C16 peptide is a specific Reo3R ligand with enhanced affinity compared with its linear analog.

[20] = molecular target: T1, Thy2 molecules (Mus musculus, UniProt P01831); assay: Flow cytometry: inhibition of H013.4 binding (specificity); parameters: species or system murine; details: FIG. 30
T1 sequence (P01831 20-131): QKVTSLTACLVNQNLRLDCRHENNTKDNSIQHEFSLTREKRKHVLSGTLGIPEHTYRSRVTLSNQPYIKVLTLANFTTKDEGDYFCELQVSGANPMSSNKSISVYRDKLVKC

[21] = system: Reo3R; assay: Inhibition of 125I-labelled reovirus type 3 binding to the Reo3R on cells
Description: The cells were centrifuged and washed twice in 1% BSA/PBS/0.1% NaN3. 5×10^4 cells or 1.25×10^6 R1.1 cells in 50 μl were distributed in 2% BSA/PBS/NaN3 blocked RIA wells. For peptide studies, 50 μl of inhibitor was added in dH2O to the cells. Following a 30 minute incubation, L cells and ^125I-labelled reovirus type 3 were combined for an additional 30 minutes at 37° C. The cells were spun, washed three times in ice cold PBS, and specific CPM bound was determined as noted above. Percent inhibition of binding was calculated by the formulae above.
To further evaluate the interaction of VLC9C16 peptide with the Reo3R, the peptide was utilized to compete with ^125I-labelled reovirus type 3 for binding to the Reo3R.

## KQFINMWQEVGKAMYAPP [B138]
[1]
  blocking of virus binding: shown to block virus binding
[2]
  binding of mouse antisera to infected H9 cells: preferentially bind
[3]
  immunoprecipitation of recombinant glycosylated gp120 by rabbit antisera: weakly
[4]
  elicitation of neutralizing antibodies (infectivity assays with rabbit sera): could elicit neutralizing antibodies
[5]
  level of antiserum antibody bound to gp120 coated plates: lower levels of bound antibody

## Gln Ser Met --- Trp Ile Gly Ile Val Ser Tyr Ser Gly Ser Gly Leu Asn (WIGIVSYSGSGLN; N-terminal Gln-Ser-Met; printed: Trp Ile Gly Ile Val Ser Tyr Ser Gly Ser Gly Leu Asn) [reo peptide, amino acids 317-332 in the type 3 viral hemagglutinin]
[6]
  specific binding of 9BG5 to peptide coated wells: Strong reproducible binding
[7]
  binding of immune serum to type 3 virus coated plates: significant binding
[8]
  binding of immune serum to type 1 virus coated plates: significant binding
[9]
  neutralization of L-cell lysis by reovirus type 3 by immune serum: specifically neutralized
[10]
  neutralization of L-cell lysis by reovirus type 1 by immune serum: not type 1
[11]
  inhibition of plaque formation by type 3 virus by immune serum: specific inhibition of plaque formation
[12]
  inhibition of plaque formation by type 1 virus by immune serum: not type 1
[13]
  proliferative response to reovirus type 3 in spleen cells from immunized mice: type specific proliferative response

## KPGKTNKLCIYSGSTCQ (cysteine pairing not given here) [VLC9C16 peptide]
[14]
  rate of loss of sulfhydryls: most rapid loss of sulfhydryls
[15]
  molecular form following oxidation by size-exclusion chromatography: remained chiefly as monomers
[16]
  binding of 9B.G5 to peptide on solid phase RIA: higher than binding to the other cyclic VL peptide analogs
[17]; inhibition of 9B.G5 - 87.92.6 interaction, FIG. 26
  increase in binding affinity for 9B.G5 compared with linear analog of VL peptide: 40 fold
[17]; liquid phase assay, FIGS. 25 and 26
  inhibition of 9B.G5 - 87.92.6 interaction: higher affinity of interaction compared with the other cyclic peptide variants
[18]; FIG. 27
  inhibition of binding of 125I-labelled reovirus type 3 to 9B.G5, compared with other cyclic peptides: higher affinity than the other cyclic peptides
[18]; FIG. 28
  inhibition of binding of 125I-labelled reovirus type 3 to 9B.G5, compared with linear VL and dimeric VLSH peptide: higher affinity than linear VL peptide, and similar affinity on a molar basis as dimeric VLSH peptide
[19]; L cells
  inhibition of binding of 87.92.6 to murine L cells: inhibited binding
[19]; R1.1 cells
  inhibition of binding of 87.92.6 to R1.1 thymoma cells: inhibited binding
[20]
  inhibition of binding of isotype matched monoclonal H013.4: not inhibited
[21]; FIG. 31
  affinity for the Reo3R by competition with 125I-labelled reovirus type 3: higher affinity for the Reo3R than VLC8C16 peptide or VLC10C16 peptide
[21]; competition with 125I-labelled reovirus type 3
  increase in affinity for the Reo3R compared with linear VL peptide: 40 fold
